In PMC6154605, “Multi-Anti-Parasitic Activity of Arylidene Ketones and Thiazolidene Hydrazines against Trypanosoma cruzi and Leishmania spp” (Molecules : A Journal of Synthetic Chemistry and Natural …, 2017):
Like-named read-outs stand apart in the source and are kept apart here. Marks after values point to notes of the source that are not given here.

Experiments:
[1] = system: T. cruzi epimastigotes, Tulahuen 2 strain (genotype TcVI); details: cited from earlier work; for IC50: read-out: IC50 ± SD Epimastigotes T. cruzi; for SI J774.1/ T. cruzi: ratio IC50 mammalian cell / IC50 parasite (epimastigotes)
[2] = system: L. braziliensis promastigotes; assay: Leishmanicidal activity on promastigotes, resazurin; format: cell-based, Leishmania braziliensis; details: for SI NCTC/ L. braziliensis: ratio IC50 mammalian cell / IC50 parasite (promastigotes); for IC50: Leishmania braziliensis, 48 h, read-out: IC50 ± SD Promastigotes L. braziliensis
Source text: (§1) We initially selected compounds previously reported to have anti-T. cruzi activity from our chemical library to evaluate their leishmanicidal activity. […]. To evaluate their activity in Leishmania spp., we performed a phenotypic screening using the promastigote form of L. infantum (MHOM/FR/91/LEM-2259) and L. braziliensis ([…]) (Table 1A for the thiazolidenehydrazine derivate and Table 1B for the arylideneketones family).
(§2) A culture of L. braziliensis (MHOM/BR/75/M2904) and L. infantum (MHOM/FR/91/LEM2259V) was obtained from the Facultad de Farmacia (Universidad Complutense, Madrid, Spain). The maintenance of the strains, the form of cultivation and the isolation of the shape of the promastigote were performed following the procedures described by Roldos et al.. The promastigotes were grown at 22 °C in Schneider’s Drosophila medium supplemented with 20% FBS. The assay was performed using a modification of a previous method. Promastigotes (2 × 10^6 parasites/well) were cultivated in 96-well plastic plates. Compounds were dissolved in dimethylsulfoxide (DMSO). Different dilutions of the compounds with a final volume up to 200 µL were added. After 48 h at 26 °C, 20 µL of a 2 mM resazurin solution were added, and the oxidation-reduction was quantified at 570 and 600 nm. The solution of resazurin was prepared at 2.5 mM in phosphate buffered solution (PBS), pH 7.4, and filtered through 0.22-µm membranes prior to use. All tests were carried out in triplicate. Resazurin sodium salt was obtained from Sigma-Aldrich (St. Louis, MO, USA) and stored at 4 °C protected from light. The efficacy of each compound was estimated by calculating the IC50 values. Each antiproliferative experiment was done in duplicate, and each concentration was tested in triplicate.

[3] = system: T. cruzi epimastigotes, Tulahuen 2 strain (genotype TcVI); assay: In vitro anti-T. cruzi activity, growth inhibition of epimastigotes; format: cell-based, Trypanosoma cruzi; details: ratio IC50 mammalian cell / IC50 parasite (epimastigotes)
Description: For the in vitro anti-T. cruzi activity, we used epimastigotes of the Tulahuen 2 strain (genotype TcVI) grown in an axenic milieu (BHI-Tryptose). Cells from a 5–7-day-old culture were inoculated in fresh culture milieu to give an initial concentration of 1.00 × 10^6 cells/mL. The absorbance at 600 nm of the cells in culture was measured every day. At Day 5, the milieu was inoculated with different quantities of the compounds from a stock solution in DMSO (DMSO concentration in the culture milieu never exceeded 0.4%). The control was made in the presence of 0.4% DMSO and in the absence of compounds. Each concentration of compound was evaluated in duplicate. At Day 5, the absorbance of the culture was measured and related to the control. […] Each antiproliferative experiment was done in duplicate, and each concentration was tested in triplicate.

[4] = system: J774.1 murine macrophages; details: read-out: IC50 ± SD Murine Macrophages, cited from earlier work
[5] = system: L. braziliensis promastigotes; parameters: method as in PMID 24749923; details: footnote c; read-out: IC50 ± SD Promastigotes L. braziliensis; cited from earlier work
[6] = biological target: T1, LmTIM (triosephosphate isomerase from Leishmania mexicana) (Leishmania mexicana, UniProt P48499); assay: Inhibition of triosephosphate isomerase; format: biochemical; details: for IC50: read-out: IC50 ± SD LmTIM; for inhibition at 100 µM: read-out: Percentage of Inhibition LmTIM
T1 construct: made in house; host or cells: Escherichia coli
Description: Compounds were dissolved in DMSO. […] The experiments were performed in triplicate.

[7] = system: NCTC929 fibroblasts; assay: Nonspecific cytotoxicity on fibroblasts, resazurin; format: cell-based; details: NCTC-929, 24 h; read-out: IC50 ± SD Fibroblast NCTC929
Description: To establish the selectivity of the compounds against the parasites, nonspecific cytotoxicity against mammalian cells, using J774.1 murine macrophages and fibroblast NCTC929, was studied for the most relevant derivatives. The selectivity indexes were calculated as the ratio between cytotoxicity for mammalian cells and the anti-parasitic activity (Table 2).
NCTC-Clone 929 were grown in minimal essential medium (Sigma) supplemented with 10% heat-inactivated FBS, penicillin G (100 U/mL) and streptomycin (100 µg/mL). Cell cultures were maintained at 37 °C in a humidified 5% CO2 atmosphere. The procedure for cell viability measurement was evaluated with resazurin by a colorimetric method. The cells were plated in 96 microtiter plates at 3.00 × 10^4 cells/well in 100 µL growth medium. The cells were grown overnight at 37 °C, 5% CO2. Thereafter, the medium was removed, and the compounds were added to 200 µL of medium for 24 h. After incubation, 20 µL of a 2 mM resazurin solution were added to each well. The plates were incubated for 3 h to allow optimal oxidation-reduction. The reduction of resazurin was determined by dual wavelength absorbance measurement at 490 and 595 nm. The background was subtracted. Each concentration was assayed three times. Medium and drug controls were used in each test as blanks.

[8] = biological target: T2, triosephosphate isomerase from T. cruzi (TcTIM) (Trypanosoma cruzi, UniProt P52270); parameters: made in house; host or cells: Escherichia coli; details: cited from earlier work; for Percentage of Inhibition TcTIM: at 100 µM; for IC50: read-out: IC50 ± SD TcTIM
[9] = system: L. infantum promastigotes; assay: Leishmanicidal activity on promastigotes, resazurin; format: cell-based, Leishmania infantum; details: for IC50: Leishmania infantum, 48 h, read-out: IC50 ± SD Promastigotes L. infantum; for SI NCTC/ L. infantum: ratio IC50 mammalian cell / IC50 parasite (promastigotes)
Source text: as §1, §2

[10] = biological target: T3, cruzipain (Trypanosoma cruzi, UniProt P25779); details: at 100 µM; cited from earlier work
[11] = system: L. infantum promastigotes; parameters: method as in PMID 11913540; details: superscript b printed; previously reported compound; read-out: IC50 ± SD Promastigotes L. infantum; cited from earlier work
[12] = system: zebrafish embryos; assay: Zebrafish embryo toxicity test (LD50)
Description: […] Only embryos that were clearly undamaged after 60 min of observation were kept and subsequently used. Dechorionated embryos were further manipulated using flame-rounded tip glass Pasteur pipettes. […] In all cases, the embryos were incubated in system water with 1% DMSO (negative control) and the compound at different doses between 8 and 96 hpf. The treatment solution was changed daily. […] At selected time points, namely 24, 48, 72 and 96 hpf, embryotoxicity (= mortality) and morphological characteristics of the embryos were evaluated using a Nikon SMZ800 stereomicroscope. The embryos were evaluated for the presence and morphological development (as appropriate) of somites, tail detachment, eyes, heart beat and blood circulation. All individuals were evaluated at all time points.

[13] = system: T. cruzi amastigotes; parameters: method as in PMID 26492824, PMID 24749923, doi:10.1039/C6RA27851E; details: 5 µM, 72 h; cited from earlier work
[14] = system: T. cruzi; details: 100 mg/kg body weight in mice, acute model; cited from earlier work
[15] = biological target: T3, cruzipain; assay: Inhibition of T. cruzi cruzipain; format: biochemical
Description: Cruzipain was purified to homogeneity from epimastigotes of the Tulahuen 2 strain by ConA–Sepharose affinity chromatography, as previously described. Cruzipain (2.5 μM ε = 58,285 M^−1cm^−1) was incubated in 50 mM acetate buffer pH 5.5 with 5 mM DTT, and 100 μM inhibitor were added, shaking the solution for 15 min at 27 °C. The derivatives were added as solutions in DMSO, and the controls contained the same solvent concentration. The concentration of DMSO never exceeded 1% in the reaction medium. L-leucylam-ido(4-guanidino)butane (E-64) was used as a positive control of inhibition. Then, the fluorogenic substrate Z-Phe-Arg 7-amido-4-methylcoumarin hydrochloride (Z-Phe-Arg-AMC) at 10 μM was added, and the fluorescence was measured during 10 min at intervals of 3 s (excitation at 380 nm and emission at 460 nm) using a Varioskan Flash Spectrophotometer. From the slope of the negative control, we calculated the total (100%) enzyme activity, while the slopes obtained in the presence of the compounds yielded the percentage of remaining enzyme activity. The percentage of enzyme inhibition was determined as […]. The experiments were done in duplicate.

[16] = biological target: T2, triosephosphate isomerase from T. cruzi (TcTIM); assay: Inhibition of triosephosphate isomerase; details: read-out: Percentage of Inhibition TcTIM
Description: Expression and purification of proteins: TcTIM, LmTIM and HsTIM were expressed in Escherichia coli and purified as described in the literature [39]. […] Before use, extensive dialysis against 100 mM triethanolamine/10 mM EDTA (pH 7.4) was performed.
Enzymatic activity assays: Enzymatic activity was determined following the conversion of glyceraldehyde 3-phosphate into dihydroxyacetone phosphate. […] The reaction mixture (1 mL, pH 7.4) contained 100 mM triethanolamine, 10 mM EDTA, 0.2 mM NADH, 1 mM glyceraldehyde 3-phosphate and 0.9 units of α-glycerol phosphate dehydrogenase. The reaction was initiated by the addition of 5 ng/mL of the TcTIM.
The mixture also contained the compounds at the indicated concentrations. Compounds were dissolved in DMSO. After 2 h, 10 µL was withdrawn and added to a final volume of 100 µL of the reaction mixture for the activity assay. The inhibition assay was performed in a 96-well microplate Varioskan spectrophotometer. […] The experiments were performed in triplicate.

T2 sequence (P52270 whole entry): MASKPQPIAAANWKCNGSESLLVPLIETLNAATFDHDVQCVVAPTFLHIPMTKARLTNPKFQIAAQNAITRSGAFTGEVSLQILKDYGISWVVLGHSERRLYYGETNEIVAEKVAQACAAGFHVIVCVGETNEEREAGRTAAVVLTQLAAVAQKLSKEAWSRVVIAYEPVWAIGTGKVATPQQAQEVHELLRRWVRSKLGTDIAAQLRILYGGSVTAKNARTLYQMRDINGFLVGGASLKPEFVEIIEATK
T1 sequence (P48499 whole entry): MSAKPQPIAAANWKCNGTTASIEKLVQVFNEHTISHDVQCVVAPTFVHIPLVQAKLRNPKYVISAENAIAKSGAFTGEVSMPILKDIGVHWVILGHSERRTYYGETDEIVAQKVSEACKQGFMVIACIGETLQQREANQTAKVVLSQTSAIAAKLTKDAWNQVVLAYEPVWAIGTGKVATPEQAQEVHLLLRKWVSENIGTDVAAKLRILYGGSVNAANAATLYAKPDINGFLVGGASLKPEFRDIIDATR
T3 sequence (P25779 123-467): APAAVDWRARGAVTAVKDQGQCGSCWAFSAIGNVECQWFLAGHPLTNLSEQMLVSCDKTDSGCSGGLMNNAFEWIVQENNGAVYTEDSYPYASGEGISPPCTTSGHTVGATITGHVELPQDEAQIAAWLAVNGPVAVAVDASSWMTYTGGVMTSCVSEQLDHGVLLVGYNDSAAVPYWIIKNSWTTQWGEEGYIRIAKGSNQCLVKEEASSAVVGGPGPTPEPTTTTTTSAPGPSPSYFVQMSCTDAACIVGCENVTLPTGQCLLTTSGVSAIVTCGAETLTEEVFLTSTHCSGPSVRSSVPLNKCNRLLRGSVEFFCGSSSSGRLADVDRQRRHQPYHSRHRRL

Compound	IC50 [1] [µM]	SI NCTC/ L. braziliensis [2]	SI J774.1/ T. cruzi [3]	SI J774.1/ T. cruzi [1]	IC50 [2] [µM]	IC50 [6] [µM]	inhibition at 100 µM [6] [%]	IC50 [7] [µM]	Percentage of Inhibition TcTIM [8]	IC50 ([4]; J774.1) [µM]	IC50 [9] [µM]	SI NCTC/ L. infantum [9]	Percentage of Inhibition Cruzipain [10]	also measured
O=C1/C(=C/c2cccc3cnccc23)CC/C1=C\c1cccc2cnccc12 [Comp13, reference compound]	31 ± 2	23	1											IC50 [4]: 21 ± 5 µM; IC50 [5]: 0.9 ± 0.2 µM
O=C(/C=C/c1cccs1)/C=C/c1cccs1 [EA138]	5 ± 0.8	20		8 ^c	8 ± 2	< 25	100	158 ± 5	0/- ^d	38 ± 7	4 ± 0.5	40	50/- ^d	
O=C1/C(=C/C=C/c2ccco2)CCC/C1=C\C=C\c1ccco1 [HIT2]	0.6 ± 0.2	23		17 ^c	7 ± 1	< 25	100	160 ± 9	100	10 ± 2	13 ± 7	12	80	IC50 [8]: 0.086 µM
COc1cc(/C=C/C(=O)CC(=O)/C=C/c2ccc(O)c(OC)c2)ccc1O [Curcumin, reference compound]	5.6 ± 1	2	2											IC50 [11]: 5.9 ± 0.3 µM; IC50 [4]: 10 ± 2 µM
C=CCn1c(C(=O)N2CCN(C/C=C/c3ccccc3)CC2)cs\c1=N/N=C/C=C/c1ccco1 [HIT1]	3.1 ± 0.2	29	10		12 ± 5		0	346 ± 9		30 ± 5	4 ± 1	87		LD50 without chorion ([12]; dechorionated zebrafish embryos, 72 h incubation): 61 ± 2 µM; LD50 with chorion ([12]; zebrafish embryos with chorion): > 100 µM; Amastigotes in infected Vero cell culture after treatment [13]: cytosol without amastigotes; Reduction of the parasitemia [14]: 70%; inhibition at 100 µM ([15]; at 100 µM, read-out: Percentage of Inhibition Cruzipain): 100%; IC50 ([15]; pool of cruzipain isoforms obtained from T. cruzi, read-out: IC50 ± SD Cruzipain): 4.3 µM; inhibition at 100 µM [16]: 0%
CC(/C=C/C(=O)/C=C/C(C)=C/c1ccco1)=C\c1ccco1 [EA155]	8.2 ± 2	34		4 ^c	16 ± 2	< 25	100	543 ± 15	100	33 ± 8	6 ± 1	91	0/- ^d	IC50 [8]: 3.3 µM
O=C(/C=C/C=C/c1ccco1)/C=C/C=C/c1ccco1 [EA128]	5 ± 0.7	14		12 ^c	36 ± 9		0	494 ± 25	100	60 ± 3	31 ± 9	16	48/- ^d	
